# Experimental data published in PubChem BioAssay (NCI).
# “And” between values parts separate entries of the source, which are not always exact repeats. Equal values may be shown once.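 Interpolation was linear, between the two tested concentrations surrounding the appropriate level; five concentrations were tested over 48 hours in 96-well plates. GI50: concentration for 50% inhibition of growth. TGI: concentration producing complete growth inhibition.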
# Columns and labels:
# Test in all cases: growth of human tumour cells (NCI), 48 h
# SK-MEL-2 melanoma = test system: SK-MEL-2 melanoma
# SF-268 CNS = test system: SF-268 CNS
# U251 CNS = test system: U251 CNS
# 786-0 renal = test system: 786-0 renal
# NCI-H460 lung = test system: NCI-H460 lung
# CCRF-CEM leukemia = test system: CCRF-CEM leukemia
# A498 renal = test system: A498 renal
# SN12C renal = test system: SN12C renal
# COLO 205 colon = test system: COLO 205 colon
# HOP-92 NSCLC = test system: HOP-92 NSCLC
Compound,GI50 (SK-MEL-2 melanoma) [µM],TGI (SK-MEL-2 melanoma),GI50 (SF-268 CNS) [µM],TGI (SF-268 CNS) [µM],GI50 (U251 CNS) [µM],TGI (U251 CNS) [µM],GI50 (786-0 renal) [µM],TGI (786-0 renal) [µM],GI50 (NCI-H460 lung) [µM],TGI (NCI-H460 lung) [µM],GI50 (CCRF-CEM leukemia) [µM],TGI (CCRF-CEM leukemia) [µM],GI50 (A498 renal),TGI (A498 renal),GI50 (SN12C renal),TGI (SN12C renal),GI50 (COLO 205 colon) [µM],TGI (COLO 205 colon) [µM],GI50 (HOP-92 NSCLC) [µM],TGI (HOP-92 NSCLC) [µM]
CC(=O)N[C@@H](Cc1ccc(OP(=O)(O)O)cc1)C(=O)N[C@H]1CCC(=O)N2CCC[C@@H](C(=O)NCc3cccc4ccccc34)N2C1=O,> 25,> 25 µM,> 25,> 25,> 25,> 25,> 25,> 25,> 25,> 25,> 25,> 25,> 25 µM,> 25 µM,> 25 µM,> 25 µM,> 25,> 25,–,–
Cc1ccc([I+]c2ccc(C)cc2)cc1,14.1,94.4 µM,7.49,> 100,4.1,> 100,28.8,> 100,3.48,30.4,–,–,2.28 µM,> 100 µM,18.6 µM,> 100 µM,6.93,95.2,4.69,> 100
CC[n+]1c(/C=C/c2ccc(N3CCCC3)cc2)cccc1/C=C/c1ccc(N2CCCC2)cc1,0.56,2.38 µM,0.449,1.58,0.202,1.04,0.247,1.2,0.293,1.15,–,–,0.344 µM and 0.239 µM,1.15 µM and 0.828 µM,0.217 µM and 0.271 µM,1.14 µM and 1.06 µM,0.164,0.341,0.342,1.41
Cc1ccc(S(=O)OC2c3ccccc3Cc3ccccc32)cc1 (stereo not given),–,–,–,47.1,–,78.5,–,48.1,–,46.2,–,–,–,42.8 µM,–,49.6 µM,–,31.5,–,36.5
S=C1NC(c2ccccc2)=NC(Cc2ccccc2)(c2ccccc2)N1c1ccccc1 (stereo not given),–,–,–,> 100,–,–,–,> 100,–,> 100,–,> 100,–,> 100 µM,–,> 100 µM,–,> 100,–,> 100
COc1cc(/C=C(\C)c2ccc3c(c2)OCO3)cc(OC)c1OC,–,63.6 µM,–,> 100,–,> 100,–,> 100,–,> 100,–,> 100,–,83.5 µM,–,> 100 µM,–,39.7,–,–
Cc1cn2c(/C=N/NC3=NCCN3)c(-c3ccc(Cl)c([N+](=O)[O-])c3)nc2s1,0.645,1.81 µM,–,–,0.947,1.75,0.908,2.5,2.34,> 50,–,–,9.4 µM,21.4 µM,0.942 µM,1.96 µM,1.43,> 50,0.776,2.82
Clc1ccc(Nc2ncnc3ccccc23)cc1,–,–,38.7,> 100,72.5,> 100,64.7,> 100,43.7,> 100,48.8,> 100,17.6 µM,85.8 µM,23 µM,73.1 µM,68.9,> 100,13.8,73.2
O=C(O)c1cc(C(=O)C(=O)c2cc(C(=O)O)c(O)c3ccccc23)c2ccccc2c1O,–,> 100 µM,–,> 100,–,> 100,–,> 100,–,> 100,–,–,–,> 100 µM,–,> 100 µM,–,> 100,–,> 100
Fc1ccc(-c2nn3c(COc4ccccc4Cl)nnc3s2)cc1Oc1ccccc1,–,–,44.8,> 100,18.4,41.2,21.3,46.7,42.6,> 100,> 100,> 100,67.6 µM,> 100 µM,20.8 µM,56.6 µM,46.4,> 100,15.2,45.6
CN(CCNc1ccc(C(=N)N)cc1)c1ccc(C(=N)N)cc1,18,> 100 µM,37.8,> 100,30.6,> 100,> 100,> 100,4.74,> 100,88.8,> 100,4.43 µM,44.7 µM,5.53 µM,> 100 µM,17,41.1,–,–
Cc1cc2c(=O)cc(-c3ccc(O)cc3)oc2c(C(=O)O)c1C,–,> 100 µM,–,–,–,> 100,–,> 100,–,> 100,–,> 100,–,–,–,> 100 µM,–,> 100,–,> 100
Cc1ccccc1C(C#N)/C(=N/NC(N)=S)C(=O)Nc1c(C)cccc1C (stereo not given),–,> 100 µM,–,> 100,–,> 100,–,> 100,–,> 100,–,> 100,–,–,–,> 100 µM,–,> 100,–,> 100
CC12OC(C(=O)C13CC3)C1C(=O)c3cccc(O)c3C(=O)C12 (stereo not given),47.3,> 100 µM,6.08,> 68.5,8.29,> 58.8,6.45,19.2,18.6,68.3,–,–,16.3 µM,30.4 µM,4.96 µM,18.9 µM,15.5,> 96.2,31.1,> 100
O=C(O)c1ccc(NCn2nc(-c3ccccc3O)oc2=S)cc1O,46.8,> 100 µM,> 100,> 100,78.1,> 100,95.2,> 100,95.6,> 100,–,–,–,–,8.85 µM,60.1 µM,42.6,> 100,> 100,> 100
Nc1cc2c(c3ccccc13)C(CCl)CN2C(=O)c1cc2cc(NC(=O)c3cc4ccccc4o3)ccc2[nH]1 (stereo not given),> 0.11,0.0109 µM and < 0.11 µM,–,–,–,–,> 0.11,> 1100,0.000351,–,–,–,–,–,> 0.11 µM,1.67 µM,–,–,–,–
CO[C@@H]1[C@H](N(C)C(=O)c2ccccc2)C[C@@H]2O[C@]1(C)n1c3ccccc3c3c4c(c5c6ccccc6n2c5c31)C(=O)NC4=O,–,–,0.763,> 100,3.6,> 100,0.744,> 100,0.646,> 100,–,–,0.206 µM,0.661 µM,0.459 µM,> 100 µM,0.398,> 100,0.173,> 100

Compound,GI50 (SK-MEL-2 melanoma) [µM],TGI (SK-MEL-2 melanoma),GI50 (SF-268 CNS) [µM],TGI (SF-268 CNS) [µM],GI50 (U251 CNS) [µM],TGI (U251 CNS) [µM],GI50 (786-0 renal) [µM],TGI (786-0 renal) [µM],GI50 (NCI-H460 lung) [µM],TGI (NCI-H460 lung) [µM],GI50 (CCRF-CEM leukemia) [µM],TGI (CCRF-CEM leukemia) [µM],GI50 (A498 renal),TGI (A498 renal),GI50 (SN12C renal),TGI (SN12C renal),GI50 (COLO 205 colon) [µM],TGI (COLO 205 colon) [µM],GI50 (HOP-92 NSCLC) [µM],TGI (HOP-92 NSCLC) [µM]
CCOc1ccc(N=C2NC(=O)C(CC(=O)Nc3ccc(Cl)cc3Cl)S2)cc1 (stereo not given),–,> 100 µM,–,> 100,–,> 100,–,> 100,–,> 100,–,> 100,–,> 100 µM,–,> 100 µM,–,> 100,–,–
CC[C@H]1[C@@H](C)C=C[C@@H](C)N1S(=O)(=O)c1ccc(C)cc1,–,52.9 µM,–,> 100,–,> 100,–,> 100,–,–,–,> 100,–,> 100 µM,–,> 100 µM,–,> 100,–,–
C=CCC1=C2CCCCC2CCC1=O (stereo not given),–,> 100 µM,–,> 100,–,> 100,–,> 100,–,> 100,–,> 100,–,> 100 µM,–,> 100 µM,–,> 100,–,–
Cc1cc(S(=O)(=O)Nc2n[nH]c(-c3ccc(Cl)cc3)c2C#N)c(S)cc1Cl,> 100,> 100 µM,> 100,> 100,> 100,> 100,> 100,> 100,> 100,> 100,> 100,> 100,–,–,> 100 µM,> 100 µM,> 100,> 100,> 100,> 100
Cc1cc2c(=O)cc(-c3ccc(Cl)cc3Cl)oc2c(C(=O)O)c1C,–,> 100 µM,–,> 100,–,> 100,–,> 100,–,> 100,–,> 100,–,–,–,> 100 µM,–,> 100,–,–
NC(=S)N/N=C/c1cn(CCCl)c2ccccc12,–,> 100 µM,–,> 100,–,–,–,> 100,–,–,–,> 100,–,–,–,> 100 µM,–,> 100,–,> 100
COC(=O)Nc1nc2ccc(C(=O)C3CC3)cc2[nH]1,3.31,> 70.1 µM,0.573,31.3,0.426,> 100,0.581,30.5,0.363,20.7,0.332,–,0.421 µM,–,0.717 µM,> 100 µM,0.392,10.4,–,–
N#C/C(=C\c1ccc([N+](=O)[O-])cc1)n1nnc2cc(F)c(F)cc21,2.32,5.58 µM,3.13,12.1,1.66,3.27,1.86,3.37,2.3,5.84,1.94,21.9,1.9 µM,3.71 µM,1.77 µM,3.61 µM,1.89,3.93,–,–
O=C(NCCCNc1cc(-c2cn(-c3ccccc3)nc2-c2cccc(O)c2)ccn1)c1ccc(F)cc1,2.18,5.06 µM,2.99,26.9,2.96,10.9,1.49,3.62,3.14,11.5,1.54,> 100,–,–,4.29 µM,30.8 µM,1.6,3.34,2.13,7.65
OC1CCC(COC(c2ccccc2)(c2ccccc2)c2ccccc2)O1 (stereo not given),–,42.6 µM,–,33.6,–,36,–,35.2,–,44.5,–,35.8,–,35.8 µM,–,38.6 µM,–,30.8,–,–
CCOC(=O)c1sc(Nc2cc(Cl)ccc2Cl)nc1C,–,> 100 µM,–,> 100,–,> 100,–,> 100,–,> 100,–,–,–,> 100 µM,–,> 100 µM,–,> 100,–,96.6
CC(=O)Nc1ccc(S(=O)(=O)N/N=C/c2cc(I)cc([N+](=O)[O-])c2O)cc1,–,> 100 µM,–,> 100,–,> 100,–,> 100,–,> 100,–,> 100,–,> 100 µM,–,> 100 µM,–,> 100,–,–
O=C([CH-]C(=O)c1ccccc1)c1ccccc1.O=C([CH-]C(=O)c1ccccc1)c1ccccc1.[CH2-]CCC.[CH2-]CCC.[Sn+4],0.223,0.883 µM,0.458,1.86,0.45,1.56,0.313,1.35,1.76,4.14,–,–,0.369 µM,1.5 µM,0.509 µM,1.75 µM,0.31,1.23,–,–
CC(=O)NS(=O)(=O)c1ccc(-n2nc(-c3ccccc3)cc2-c2cc(O)ccc2O)cc1,> 100,> 100 µM,> 100,> 100,61.6,> 100,57.5,> 100,> 100,> 100,> 100,> 100,–,–,> 100 µM,> 100 µM,44,> 100,> 100,> 100
COc1cc(C)cc(C(=O)OCc2ccccc2)c1C1=C(Cl)C(=O)C(Cl)=CC1=O,–,> 10 µM,–,> 10,–,> 10,–,> 10,–,> 10,–,4.76,–,–,–,> 10 µM,–,> 10,–,9.92
ClCCN(CCCl)c1ccc(OCc2ccccc2)cc1,13.3,35.4 µM,2.07,22.5,2.1,18.2,2.97,22.1,0.603,19.8,2.36,27.6,3.54 µM,19.5 µM,2.76 µM,58.6 µM,12.1,32.4,–,–
COc1ccc(C(=O)O[C@@H]2CCN3CC[C@H](C)[C@H]23)cc1,–,> 100 µM,–,> 100,–,> 100,–,> 100,–,> 100,–,–,–,> 100 µM,–,> 100 µM,–,> 100,–,> 100
